The assay concerns the target T1, Coronin 1A (CORO1A) (Homo sapiens, UniProt P31146).
T1 construct: EGFP-tagged CORO1A overexpressed in HEK 293T cells (lysate)
Kind of assay: MST with EGFP-CORO1A cell lysate; supported by CETSA and DARTS in MDA-MB-231 cells. The format is binding.

T1 sequence (P31146 2-461): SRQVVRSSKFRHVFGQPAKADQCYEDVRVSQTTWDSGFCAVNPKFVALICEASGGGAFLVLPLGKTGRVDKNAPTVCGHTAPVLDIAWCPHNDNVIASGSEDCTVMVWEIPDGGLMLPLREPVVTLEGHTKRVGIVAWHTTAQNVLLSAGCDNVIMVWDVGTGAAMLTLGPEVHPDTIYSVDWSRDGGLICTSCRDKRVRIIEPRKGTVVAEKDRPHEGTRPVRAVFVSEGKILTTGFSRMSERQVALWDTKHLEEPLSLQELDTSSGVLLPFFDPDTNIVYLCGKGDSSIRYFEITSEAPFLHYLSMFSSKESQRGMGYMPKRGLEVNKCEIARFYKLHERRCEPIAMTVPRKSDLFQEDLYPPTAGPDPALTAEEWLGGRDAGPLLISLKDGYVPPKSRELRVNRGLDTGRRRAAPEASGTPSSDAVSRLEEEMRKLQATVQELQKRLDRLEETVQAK

What is called Kd is the free concentration of one partner at which half of the binding sites on the other are occupied at equilibrium, for simple one-to-one binding. A high value points to a looser complex. Aurovertin B [AB] came in with a Kd of 352 nM.
